# According to patent publication US8426649B2, “Cyclopropenones and the photochemical generation of cyclic alkynes therefrom” (University of Georgia Research Foundation, Inc., priority 2009, dated 2013):
# How the values were obtained:
# [1] = Rate measurements of cycloaddition of acetylenes with azides by UV spectroscopy in methanol; format: physicochemical; details: 25±0.1° C.
# Procedure: The rate measurements of cycloaddition of acetylenes 6c and 4a were conducted by UV spectroscopy at 25±0.1° C. A calculated amount of 0.25 M solutions of an azide required to achieve desired azide concentration (6×10^−4-1.5×10^−2 M) was added to a thermally equilibrated ca. 6×10^−5 M solution of acetylene in MeOH. Reactions were monitored by following the decay of the characteristic absorbance of acetylenes ca. 317 nm (FIG. 6). Consumption of starting material followed a first order equation well and the pseudo-first order rate constants were obtained by the by least-squares fitting of the data to a single exponential equation. The dependence of the observed rates on the concentration of azides was linear.
# The rate measurements of the cycloaddition reaction of acetylene 6c with azides was conducted by UV spectroscopy following the decay of the 317 nm band of 6c (as shown in FIG. 6) in the photolysate at various concentrations of azides from about 0.5 mM to about 20 mM). […]
# Rate measurements were performed using Carry-300 Bio UV-Vis spectrometer equipped with a thermostatable cell holder. […] A calculated amount of 0.25 M solutions of an azide required to achieve desired azide concentration (6×10^−4−1.5×10^−2M) was added at once. Reactions were monitored by following the decay of the characteristic absorbance of acetylene 6c at approximately 317 nm (FIG. 6). […]
# [2] = Stability of cyclopropenones (shelf life, elevated temperature, solution); format: physicochemical; details: 3 days at 40° C. in aqueous and methanol solutions
# Description: Diphenyl cyclopropenones, such as 5a-c, 18a-c, and 19, had long shelf lives, and could withstand elevated temperatures. […] (Poloukhtine & Popik (2003) J. Org. Chem. 68: 7833-7840). The cyclopropenones are also stable in solution in the absence of light.
Compound,"Bimolecular rate constant, Rate ([1]; 1-phenyl-2-azidopropane)","Bimolecular rate constant, Rate ([1]; n-butyl azide)",Decomposition in solution in the absence of light [2]
"3,9-Dibutoxy-5,6-didehydro-11,12-dihydrodibenzo[a,e][8]annulen-2-yl [6c]",0.0343 M⁻¹ s⁻¹,0.0586 M⁻¹ s⁻¹,–
"CCCCOc1ccc2c(c1)CCc1cc(OCCCC)ccc1-c1c-2c1=O [5c, 4,9-dibutoxy-6,7-dihydro-1H-dibenzo[a,e]cyclopropa[c][8]annulen-1-one]",–,–,no decomposition
